Reference: patent US20140343000A1 (priority 2011, published 2014)
Where two headings read alike, the source gives them in different places.

Test system: recombinant NL4-3 virus (Renilla luciferase in nef, Gag P373S; NLRluc) in MT-2 cells
Assay: whole plant or invertebrate
Assay type: cell-based, HIV
Settings: Renilla, NL43, luciferase activity in cells infected for 4-5 days with NLRluc recombinants, serial dilutions of inhibitor, read-out: EC50
Summary of the method: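 MT-2 cells infected 4–5 days with NL4-3 carrying Renilla luciferase in nef and Gag P373S, with serial dilutions of inhibitor present. Antiviral activity quantified by luciferase activity, using Dual Luciferase reagents premixed with lysis buffer and read immediately.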

## C=C(C)[C@@H]1CC[C@]2(NCc3ccco3)CC[C@]3(C)[C@H](CC[C@@H]4[C@@]5(C)CC=C(c6ccc(C(=O)O)cc6)C(C)(C)[C@@H]5CC[C@]43C)[C@@H]12 [Example 155, 4-((1R,3aS,5aR,5bR,7aR,11aS,11bR,13aR,13bR)-3a-(furan-2-ylmethylamino)-5a,5b,8,8,11a-pentamethyl-1-(prop-1-en-2-yl)-2,3,3a,4,5,5a,5b,6,7,7a,8,11,11a,11b,12,13,13a,13b-octadecahydro-1H-cyclopenta[a]chrysen-9-yl)benzoic acid]
Class symbols (key in Table 1)
  EC50: < 100 nM

## C=C(C)[C@@H]1CC[C@]2(NC(=O)NCCN(C)CCO)CC[C@]3(C)[C@H](CC[C@@H]4[C@@]5(C)CC=C(c6ccc(C(=O)O)cc6)C(C)(C)[C@@H]5CC[C@]43C)[C@@H]12 [Example 23, 4-((1R,3aS,5aR,5bR,7aR,11aS,11bR,13aR,13bR)-3a-(3-(2-((2-hydroxyethyl)(methyl)amino)ethyl)ureido)-5a,5b,8,8,11a-pentamethyl-1-(prop-1-en-2-yl)-2,3,3a,4,5,5a,5b,6,7,7a,8,11,11a,11b,12,13,13a,13b-octadecahydro-1H-cyclopenta[a]chrysen-9-yl)benzoic acid]
Class symbols (key in Table 1)
  EC50: < 100 nM

## C=C(C)[C@@H]1CC[C@]2(N(C)C)CC[C@]3(C)[C@H](CC[C@@H]4[C@@]5(C)CC=C(c6ccc(C(=O)O)cc6)C(C)(C)[C@@H]5CC[C@]43C)[C@@H]12 [Example 177, 4-((1R,3aS,5aR,5bR,7aR,11aS,11bR,13aR,13bR)-3a-(dimethylamino)-5a,5b,8,8,11a-pentamethyl-1-(prop-1-en-2-yl)-2,3,3a,4,5,5a,5b,6,7,7a,8,11,11a,11b,12,13,13a,13b-octadecahydro-1H-cyclopenta[a]chrysen-9-yl)benzoic acid]
Numeric values
  EC50: 9 nM

## C=C(C)[C@@H]1CC[C@]2(NC(=O)NCCCN(C)S(C)(=O)=O)CC[C@]3(C)[C@H](CC[C@@H]4[C@@]5(C)CC=C(c6ccc(C(=O)O)cc6)C(C)(C)[C@@H]5CC[C@]43C)[C@@H]12 [Example 49, 4-((1R,3aS,5aR,5bR,7aR,11aS,11bR,13aR,13bR)-5a,5b,8,8,11a-pentamethyl-3a-(3-(3-(N-methylmethylsulfonamido)propyl)ureido)-1-(prop-1-en-2-yl)-2,3,3a,4,5,5a,5b,6,7,7a,8,11,11a,11b,12,13,13a,13b-octadecahydro-1H-cyclopenta[a]chrysen-9-yl)benzoic acid]
Class symbols (key in Table 1)
  EC50: < 100 nM

## C=C(C)[C@@H]1CC[C@]2(NCCN3CCN(C(=O)CCC)CC3)CC[C@]3(C)[C@H](CC[C@@H]4[C@@]5(C)CC=C(c6ccc(C(=O)O)cc6)C(C)(C)[C@@H]5CC[C@]43C)[C@@H]12 [Example B61, 4-((1R,3aS,5aR,5bR,7aR,11aS,11bR,13aR,13bR)-3a-((2-(4-butyrylpiperazin-1-yl)ethyl)amino)-5a,5b,8,8,11a-pentamethyl-1-(prop-1-en-2-yl)-2,3,3a,4,5,5a,5b,6,7,7a,8,11,11a,11b,12,13,13a,13b-octadecahydro-1H-cyclopenta[a]chrysen-9-yl)benzoic acid]
Class symbols (key in Table 1)
  EC50: < 100 nM
